Source: patent publication US20050220779A1, “Integrin linked kinase modulation of macrophage activation” (priority 2001, published 2005)

Key:
[1] = test system: IL-6 release in macrophages; experiment: LPS-IFN-γ-induced IL-6 release in macrophages (ELISA); assay type: cell-based, murine
Method: (§1) Treatment of primary macrophages and RAW 264.7 cells. Primary macrophages (1.5×10^5 cells/well) and RAW 264.7 (4×10^4 cells/well) cells were grown in 96-well plates (nitrite assay), or 6-well plates (2×10^6 cells/well) for measurement of iNOS and COX-2 expression. Following 3 h incubation, at 37 C, 5% CO2 (macrophages were allowed to attach) cells were stimulated with LPS (0.5 μg/ml) and IFN-γ (100 U/ml) in the absence or presence of various concentrations of ILK inhibitors (all treatments were replicated six times). Cells were incubated for an additional 24 h, and cell free culture supernatants from each well were collected for NO and cytokine determination. The remaining cells were stained with crystal violet to determine effect of the inhibitors on cell survival.
Enzyme immunoassays for mouse IL-6. IL-6 levels were determined with PharMingen's OptElA ELISA set developed using an anti-mouse IL-6 Ab pair and mouse rIL-6 standard (PharMingen). Maxisorp F16 multiwell strips (Nunc, Roskilde, Denmark) were coated with anti-mouse IL-6 capture Ab (at recommended concentration) in 0.1 M NaHCO3, pH 9.5, 100 μl/well, overnight at 4° C. Plates were washed three times with 0.05% Tween 20 in PBS (PBST) and blocked for 1 h at room temperature with 200 μl/well of 10% FCS in PBS (blocking and dilution buffer). […] Absorbance was read at 450 nm with an EL 312e microplate reader. […]

[2] = test system: LPS-IFN-γ stimulated macrophages; experiment: NO production of LPS-IFN-γ stimulated macrophages (cell type not specified; dose response, Table 2 and second Table 3); assay type: cell-based, murine; settings: LPS-INF-γ stimulated
Method: as §1, with “Primary macrophages (1.5×10^5 cells/well) and RAW 264.7 (4×10^4 cells/well) cells were grown in 96-well plates (nitrite assay), or 6-well plates (2×10^6 cells/well) for measurement of iNOS and COX-2 expression.” left out
(§2) NO production. Following stimulation, the production of NO was determined by assaying culture supernatants for NO2^−, a stable reaction product of NO with molecular oxygen. Briefly, 100 μl of culture supernatant was reacted with an equal volume of Griess reagent at room temperature for 10 min. The absorbance at 550 nm was determined. All measurements were performed six times. The concentration of NO2^−was calculated by comparison with a standard curve prepared using NaNO2.

iNOS = iNOS protein expression in LPS-IFN-γ stimulated macrophages (western blot); assay type: cell-based, murine; settings: Macrophages, LPS-INF-γ stimulated
Method: (§3) Western blot analysis. After incubation with the indicated stimuli in the presence of ILK inhibitors, cells (duplicate samples, 2×10^6cell/6-wells plate) were washed in PBS and lysed on ice in 60 μl of lysis buffer. The protein content of each sample was determined using the Bradford protein assay kit (Bio-Rad, Richmond, Calif.). Absorbance was measured at 750 nm with a Beckman DU530 spectrophotometer (Palo Alto, Calif.). Proteins were mixed with […] sample buffer. Following separation of proteins by SDS-PAGE, using 8% bis-acrylamide in the separation gel, the proteins were transferred from the gels onto PVDF membranes using a MiniProtean III Cell (Bio-Rad), at 100 V for 1.5 h. Equal amounts of protein (5 μg) were loaded onto SDS-PAGE gels and examined by Western blot analysis with anti-Actin, anti-iNOS, anti-COX-2 murine monoclonal antibodies according to the manufacturers specifications (Transduction Laboratories). Primary Abs, in 5% blocking buffer (5% NFM/TTBS), were incubated with blots 2 h or overnight at 4° C., followed by incubation with peroxidase-conjugated secondary antibody. Chemiluminescence substrates were used to reveal positive bands. The bands were exposed on x-ray films. […] The Multi-Analyst/PC system from Biorad is being used to quantitate the bands of the expressed protein on the film. […] White light is chosen as the selected light source, thus the signal strength is measured in OD (optic density) units. […]
(§4) Effects of ILK inhibitors on the LPS-IFN-γ-induced iNOS and COX-2 expression NO production requires that iNOS be enzymatically activity, therefore experiments were performed to examine whether the inhibitory effect of ILK inhibitors was mediated by […] iNOS protein synthesis or effects on the activity of existing enzyme. Stimulated cells were treated with ILK inhibitors (25 μM), and lysed 16 h later and a western blot analysis was performed to quantitate iNOS protein expression. […]

COX-2 = COX-2 protein expression in LPS-IFN-γ stimulated macrophages (western blot); assay type: cell-based, murine; settings: Macrophages, LPS-INF-γ stimulated
Method: as §3, with “Laboratories).” for “Laboratories). Primary Abs, in 5% blocking buffer (5% NFM/TTBS), were incubated with blots 2 h or overnight at 4° C., followed by incubation with peroxidase-conjugated secondary antibody. Chemiluminescence substrates were used to reveal positive bands. The bands were exposed on x-ray films.”
as §4
Nitric oxide and Prostaglandin E2 are two pleiotropic mediators produced at inflammatory sites by the inducible enzymes iNOS and cyclooxygenase-2 (COX-2), respectively. […] Finally, we evaluated the in-vitro effects of compounds on production of MCP-1 chemokine by TNF-α stimulated HUVEC cells. […]

[3] = test system: BALB/c cells (primary peritoneal macrophages); experiment: Cell survival by crystal violet staining, BALB/c cells; assay type: cell-based; settings: BALB/c cells
Method: as §1, with “Primary macrophages (1.5×10^5 cells/well) and RAW 264.7 (4×10^4 cells/well) cells were grown in 96-well plates (nitrite assay), or 6-well plates (2×10^6 cells/well) for measurement of iNOS and COX-2 expression.” left out
(§5) Effect of ILK Inhibitors on suppression of NO production and cell survival. Twenty-four hours following treatment with the ILK inhibitors, aliquots from the cell-free supernatants were assayed for NO and IL-6 release. Surviving cells were stained and fixed (crystal violet 0.05% in 20% ethanol), to determine if the decrease in NO production was related to a decrease in cell number due to toxicity of the compounds.

RAW 264.7 cells [4] = experiment: LPS-IFN-γ-induced macrophage NO production (Griess nitrite assay), RAW 264.7 cells; assay type: cell-based, murine
Method: RAW 264.7 cells. RAW 264.7 cells, a murine macrophage cell line, were obtained from American Type Culture Collection (ATCC, Manassas, Va.) and cultured in DMEM supplemented with 10% FCS. Each treatment was performed in triplicate wells. RAW 264.7 cells (Balb/c background) produce a significant amount of nitric oxide upon treatment with IFN-γ alone, but require LPS for full activation. This property makes their behavior more like that of normal macrophages obtained from commonly used strains of mice.
as §1, with “Primary macrophages (1.5×10^5 cells/well) and RAW 264.7 (4×10^4 cells/well) cells were grown in 96-well plates (nitrite assay), or 6-well plates (2×10^6 cells/well) for measurement of iNOS and COX-2 expression.” left out
as §2
(§6) Effects of ILK inhibitors on LPS-IFN-γ-induced NO release. […] […] To compare the effect of the compounds across three different cell types, the NO release for each cell type was expressed relative to DMSO treated cells.

[5] = test system: C57BL/6 cells (primary peritoneal macrophages); experiment: Cell survival by crystal violet staining, C57BL/6 cells; assay type: cell-based
Method: as §1, with “Primary macrophages (1.5×10^5 cells/well) and RAW 264.7 (4×10^4 cells/well) cells were grown in 96-well plates (nitrite assay), or 6-well plates (2×10^6 cells/well) for measurement of iNOS and COX-2 expression.” left out
as §5

[6] = test system: C57BL/6 cells (primary peritoneal macrophages); experiment: LPS-IFN-γ-induced macrophage NO production (Griess nitrite assay), C57BL/6 cells; assay type: cell-based, mouse
Method: (§7) Isolation of primary mouse macrophages. Peritoneal exudate macrophages were isolated by peritoneal lavage with ice-cold sterile physiological saline 24 h after intraperitoneal injection of BALB/c and CB57BL/6 mice with 0.3 ml of sterile Zymosan A (1 mg/0.5 ml 0.9% saline). Cells were washed, resuspended in RPMI 1640 supplemented with 2 mM L-glutamine, 100 units/ml penicillin, 100 μg/ml streptomycin, and 5% FBS.
as §1, §2
as §6, with “cells. […] For example, macrophages from Balb/c and C57BL/6 mice responded similarly to the treatment with the compounds.” for “cells.”

RAW 264.7 cells [7] = experiment: Cell survival by crystal violet staining, RAW 264.7 cells; assay type: cell-based
Method: as §1
as §5, with “compounds. […] Only those compounds that induced strong inhibition of NO release, and caused no significant cell death were selected for further evaluation.” for “compounds.”

[8] = test system: BALB/c cells (primary peritoneal macrophages); experiment: LPS-IFN-γ-induced macrophage NO production (Griess nitrite assay), BALB/c cells; assay type: cell-based, mouse
Method: as §7, §1, §2
as §6, with “cells. […] For example, macrophages from Balb/c and C57BL/6 mice responded similarly to the treatment with the compounds.” for “cells.”

HUVEC cells = experiment: In vitro Matrigel morphogenesis (tube formation) assay of VEGF stimulated HUVEC cells; assay type: cell-based, human; settings: 100 mM (so in the source)
Method: In Vitro Angiogenesis. […] After 5 hours of incubation in a 5% CO2-humidified atmosphere at 37 °C, the three-dimensional organization of the cells was examined using an inverted photomicroscope. The cells were fixed with Crystal Violet (0.05% in 20% ethanol) and digitally photographed.
To determine the anti-angiogenic properties of ILK inhibitors, an in vitro Matrigel morphogenesis assay was established. This assay evaluates the ability of endothelial cells to differentiate into capillary-like structures, a crucial step during neovascularization. HUVEC cells when stimulated with VEGF and seeded onto Matrigel rapidly attach to the matrix and begin to migrate and interact with the extracellular matrix proteins present in the Matrigel. […] These capillary-like structures can be assessed by histology (FIG. 2). Samples are cut on a cross section and subsequent viewed using an electron microscope. Typically, cylindrical formations with a lumen are observed. A distinct difference in the morphology of tube formation on Matrigel, compared to other in vitro angiogenesis assays is a reduction in the proliferation of endothelial cells. […] Using this model system, both inhibitors and stimulators of angiogenesis can be assessed prior to in vivo testing.
The assay was established and reproducibility confirmed. SU5416, shown to inhibit angiogenesis in other assays, was also evaluated. […]

| SMILES | Survival (%) ([3]; 0.5 mM) | Survival (%) ([3]; 1 mM) | NO inhibition (%) (RAW 264.7 cells [4]; 0.5 mM) | NO release (%) (RAW 264.7 cells [4]; 0.5 mM) | NO inhibition (%) (RAW 264.7 cells [4]; 1 mM) | NO release (%) (RAW 264.7 cells [4]; 1 mM) | Survival (%) ([5]; 0.5 mM) | Survival (%) ([5]; 1 mM) | NO inhibition (%) ([6]; 0.5 mM) | NO release (%) ([6]; 0.5 mM) | NO inhibition (%) ([6]; 1 mM) | NO release (%) ([6]; 1 mM) | Survival (%) (RAW 264.7 cells [7]; 0.5 mM) | Survival (%) (RAW 264.7 cells [7]; 1 mM) | NO inhibition (%) ([8]; 0.5 mM) | NO release (%) ([8]; 0.5 mM) | NO inhibition (%) ([8]; 1 mM) | NO release (%) ([8]; 1 mM) | other results |
| --- | --- | --- | --- | --- | --- | --- | --- | --- | --- | --- | --- | --- | --- | --- | --- | --- | --- | --- | --- |
| NC1=NN=C(N)C1/N=N/c1ccc(F)c(C(F)(F)F)c1 [4-[(4-fluoro-3-trifluoromethylphenyl)hydrazono]-4H-pyrazole-3,5-diamine] | – | – | – | – | – | – | – | – | – | – | – | – | – | – | – | – | – | – | inhibition at 25 µM ([1]; Mus musculus, Macrophage, 25 μM, 24 h, LPS (0.5 μg) IFN-γ (100 U)): 63%; NO (%) [2]: 74%; INOS (%) (iNOS): 88%; COX-2 (%) (COX-2): 67% |
| C[C@@H]1C[C@H]2[C@@H]3CCC4=CC(=O)C=C[C@]4(C)[C@@]3(F)[C@@H](O)C[C@]2(C)[C@@]1(O)C(=O)CO [Dex, Dexamethasone] | 84% | 73% | −6% | 103.6% | −9% | 87.1% | 87% | 68% | 32% | 67.9% | 53% | 46.6% | 98% | 80% | 28% | 60.6% | 36% | 46.7% | – |
| CNC(=N)NCCC[C@H](N)C(=O)O [L-NMMA, N^G-Monomethyl-L-arginine] | 97% | 94% | 52% | 44.2% | 63% | 31.7% | 97% | 99% | 92% | 8.3% | 99% | 1.1% | 92% | 86% | 92% | 7.9% | 97% | 3.1% | – |
| Cc1cc(C)c(/C=C2\C(=O)Nc3ccccc32)[nH]1 [SU5146, reference compound] | – | – | – | – | – | – | – | – | – | – | – | – | – | – | – | – | – | – | Effect on endothelial cell morphogenesis (in words) (HUVEC cells): did not affect endothelial cell morphogenesis |
| C[C@]12CCC(=O)C=C1CC[C@@H]1[C@@H]2[C@@H](O)C[C@@]2(C)[C@H]1CC[C@]2(O)C(=O)CO [hydrocortisone, Hydrocortisone, reference compound] | – | – | – | – | – | – | – | – | – | – | – | – | – | – | – | – | – | – | Effect on IL-6 release (in words) ([1]; 50 μM, added at the onset of the culture): moderately suppressed IL-6 release |
